Source: patent publication US12565501B2, “Muscarinic acetylcholine M1 receptor antagonists” (Contineum Therapeutics, Inc., priority 2019, dated 2026)
pIC50: −log10 of the molar value.

Each compound was assayed against T1, human M1 receptor (Homo sapiens, UniProt P11229) (assay: In vitro functional assay of muscarinic acetylcholine receptor activity (aequorin calcium flux, reversal of EC80 acetylcholine response)). Conditions: CHO-K1 cells stably expressing human M1 receptor with aequorin; acetylcholine at EC80; calcium flux (luminescence); read-out: M1 IC50.
T1 sequence (P11229 1-460): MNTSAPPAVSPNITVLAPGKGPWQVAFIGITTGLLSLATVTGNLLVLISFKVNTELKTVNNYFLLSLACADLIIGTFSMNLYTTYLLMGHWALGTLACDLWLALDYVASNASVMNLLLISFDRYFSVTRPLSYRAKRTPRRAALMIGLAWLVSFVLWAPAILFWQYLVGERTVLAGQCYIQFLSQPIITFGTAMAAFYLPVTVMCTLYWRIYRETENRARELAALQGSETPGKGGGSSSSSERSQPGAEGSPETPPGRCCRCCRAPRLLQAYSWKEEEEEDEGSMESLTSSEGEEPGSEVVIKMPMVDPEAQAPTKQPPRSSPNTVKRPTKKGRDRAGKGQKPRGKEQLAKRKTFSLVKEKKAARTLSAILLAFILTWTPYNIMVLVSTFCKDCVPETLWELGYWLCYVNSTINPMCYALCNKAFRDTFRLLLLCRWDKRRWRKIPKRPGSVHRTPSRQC
Type: cell-based
Outline: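 Antagonist mode: compound (final 0.1% DMSO) and coelenterazine-loaded M1/aequorin CHO-K1 cells incubated 30 min in the dark before EC80 acetylcholine addition. Calcium flash integrated as 40 s luminescence AUC; IC50 derived from dose-response curves.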

`N#Cc1ccc(N2C3CCC2CN(C(=O)CNC2(c4ccccc4)CC2)C3)nc1` [Example 94, 6-(3-((1-phenylcyclopropyl)glycyl)-3,8-diazabicyclo[3.2.1]octan-8-yl)nicotinonitrile] was tested. Which pIC50 did it give?
The pIC50 was 5.00 to 6.00.

With `N#Cc1ccc(N2C3CCC2CN(C(=O)CNC2CCc4cc(F)cc(F)c42)C3)nc1` (racemic) [Example 91, 6-(3-((5,7-difluoro-2,3-dihydro-1H-inden-1 yl)glycyl)-3,8-diazabicyclo[3.2.1]octan-8-yl)nicotinonitrile] as the compound, how does the pIC50 read?
The pIC50 was 6.00 to 7.00.

`N#Cc1ccc(N2C3CCC2CN(C(=O)COCC(F)(F)c2cccc4ncccc24)C3)nc1` [Example 276, 6-(3-(2-(2,2-difluoro-2-(quinolin-5-yl)ethoxy)acetyl)-3,8-diazabicyclo[3.2.1]octan-8-yl)nicotinonitrile] was tested. Which pIC50 did it give?
Its pIC50 is > 8.00.

With `COc1ccc(C#N)c(C2(OCC(=O)N3CC4CCC(C3)N4c3ccc(C#N)cn3)CC2)c1` [Example 293, 6-(3-(2-(1-(2-cyano-5-methoxyphenyl)cyclopropoxy)acetyl)-3,8-diazabicyclo[3.2.1]octan-8-yl)nicotinonitrile] as the compound, how does the pIC50 read?
The pIC50 was > 8.00.

How did the pIC50 turn out when `COc1cccc2c1CCN(CCC(=O)N1C[C@H]3CC[C@@H](C1)N3c1ccc(C#N)cn1)C2C` (mixture of isomers) [Example 38, 6-(3-(3-(5-methoxy-1-methyl-3,4-dihydroisoquinolin-2(1H)-yl)propanoyl)-3,8-diazabicyclo[3.2.1]octan-8-yl)nicotinonitrile] was run?
Its pIC50 is 5.00 to 6.00.

`N#Cc1ccc(N2C3CCC2CN(C(=O)COC2(c4cc(F)ccc4C#N)CC2)C3)nc1` [Example 298, 6-(3-(2-(1-(2-cyano-5-fluorophenyl)cyclopropoxy)acetyl)-3,8-diazabicyclo[3.2.1]octan-8-yl)nicotinonitrile] was tested. Which pIC50 did it give?
The pIC50 was 6.00 to 7.00.

With `N#Cc1ccc(N2C3CCC2CN(C(=O)COC2(c4cncc(F)c4)CC2)C3)nc1` [Example 229, 6-(3-(2-(1-(5-fluoropyridin-3-yl)cyclopropoxy)acetyl)-3,8-diazabicyclo[3.2.1]octan-8-yl)nicotinonitrile] as the compound, how does the pIC50 read?
Its pIC50 is 6.00 to 7.00.

How did the pIC50 turn out when `N#Cc1cnc(N2[C@@H]3CC[C@H]2CN(C(=O)CCNC2(c4ccc(F)c(F)c4)CC2)C3)nc1` [Example 44, 2-(3-(3-((1-(3,4-difluorophenyl)cyclopropyl)amino)propanoyl)-3,8-diazabicyclo[3.2.1]octan-8-yl)pyrimidine-5-carbonitrile] was run?
Its pIC50 is 6.00 to 7.00.

How did the pIC50 turn out when `N#Cc1ccc(C2(NCC(=O)N3CC4CCC(C3)N4c3ccc(C#N)cn3)CC2)cc1` [Example 100, 6-(3-((1-(4-cyanoplKml)cyclopropyl)glycyl)-3,8-diazabicyclo[3.2.1]oclaii-8-yl)mcotiiiomtrile] was run?
The pIC50 was < 6.00.

How did the pIC50 turn out when `COc1ccc(F)c(C2(NCC(=O)N3CC4CCC(C3)N4c3ccc(C#N)cn3)CCC2)c1` [Example 116, 6-(3-((1-(2-fluoro-5-methoxyphenyl)cyclobutyl)glycyl)-3,8-diazabicyclo[3.2.1]octan-8-yl)nicotinonitrile] was run?
Its pIC50 is 7.00 to 8.00.

With `N#Cc1ccc(N2[C@@H]3CC[C@H]2CN(C(=O)CCNC2(c4ccccn4)CC2)C3)nc1` [Example 18, 6-(3-(3-((1-(pyridin-2-yl)cyclopropyl)amino)propanoyl)-3,8-diazabicyclo[3.2.1]octan-8-yl)nicotinonitrile] as the compound, how does the pIC50 read?
The pIC50 was 5.00 to 6.00.

With `COc1cccc(C2(NCC(=O)N3CC4CCC(C3)N4c3ccc(C#N)cn3)CCC2)c1` [Example 114, 6-(3-((1-(3-methoxyphenyl)cyclobutyl)glycyl)-3,8-diazabicyclo[3.2.1]octan-8-yl)nicotinonitrile] as the compound, how does the pIC50 read?
The pIC50 was > 8.00.

How did the pIC50 turn out when `COc1cc(C2(OCC(=O)N3CC4CCC(C3)N4c3ccc(C#N)cn3)CCC2)ccn1` [Example 252, 6-(3-(2-(1-(2-methoxypyridin-4-yl)cyclobutoxy)acetyl)-3,8-diazabicyclo[3.2.1]octan-8-yl)nicotinonitrile] was run?
Its pIC50 is 7.00 to 8.00.

How did the pIC50 turn out when `N#Cc1ccc(N2C3CCC2CN(C(=O)COC2(c4ccc(Cl)c(Cl)c4)CC2)C3)nc1` [Example 214, 6-(3-(2-(1-(3,4-dichlorophenyl)cyclopropoxy)acetyl)-3,8-diazabicyclo[3.2.1]octan-8-yl)nicotinonitrile] was run?
Its pIC50 is 7.00 to 8.00.

How did the pIC50 turn out when `COc1cc(C2(NCC(=O)N3CC4CCC(C3)N4c3ccc(C#N)cn3)CC2)ccc1F` [Example 109, 6-(3-((1-(4-fluoro-3-methoxyphenyl)cyclopropyl)glycyl)-3,8-diazabicyclo[3.2.1]octan-8-yl)nicotinonitrile] was run?
The pIC50 was > 8.00.

How did the pIC50 turn out when `COc1ccc(Br)c(C2(OCC(=O)N3CC4CCC(C3)N4c3ccc(C#N)cn3)CC2)c1` [Example 226, 6-(3-(2-(1-(2-bromo-5-methoxyphenyl)cyclopropoxy)acetyl)-3,8-diazabicyclo[3.2.1]octan-8-yl)nicotinonitrile] was run?
The pIC50 was > 8.00.

`N#Cc1ccc(N2C3CCC2CN(C(=O)CCOCC2(c4ccccc4)CC2)C3)nc1` [Example 307, 6-(3-(3-((1-phenylcyclopropyl)methoxy)propanoyl)-3,8-diazabicyclo[3.2.1]octan-8-yl)nicotinonitrile] was tested. Which pIC50 did it give?
Its pIC50 is 6.00 to 7.00.

How did the pIC50 turn out when `N#Cc1ccc(N2C3CCC2CN(C(=O)CCNC2(c4cc(Cl)cc(C#N)c4)CC2)C3)nc1` [Example 289, 6-(3-(3-((1-(3-chloro-5-cyanophenyl)cyclopropyl)amino)propanoyl)-3,8-diazabicyclo[3.2.1]octan-8-yl)nicotinonitrile] was run?
Its pIC50 is 6.00 to 7.00.

How did the pIC50 turn out when `N#Cc1ccc(N2C3CCC2CN(C(=O)COC2(c4ccc(F)c(C#N)c4)CC2)C3)nc1` [Example 291, 6-(3-(2-(1-(3-cyano-4-fluorophenyl)cyclopropoxy)acetyl)-3,8-diazabicyclo[3.2.1]octan-8-yl)nicotinonitrile] was run?
The pIC50 was 6.00 to 7.00.

With `CC(c1ccc(F)cc1)[S+]([O-])CCC(=O)N1CC2CCC(C1)N2c1ccc(C#N)cn1` (racemic) [Example 170, 6-(3-(3-((1-(4-fluorophenyl)ethyl)sulfinyl)propanoyl)-3,8-diazabicyclo[3.2.1]octan-8-yl) nicotinonitrile] as the compound, how does the pIC50 read?
The pIC50 was < 6.00.

How did the pIC50 turn out when `N#Cc1ccc(N2[C@@H]3CC[C@H]2CN(C(=O)CCNC2(c4ccccc4)CC2)C3)nc1` [Example 2, 6-(3-(3-((1-phenylcyclopropyl)amino)propanoyl)-3,8-diazabicyclo[3.2.1]octan-8-yl)nicotinonitrile] was run?
The pIC50 was 6.00 to 7.00.

`COc1ccccc1C1(NCCC(=O)N2CC3CCC(C2)N3c2ccc(C#N)cn2)CC1` [Example 15, 6-(3-(3-((1-(2-methoxyphenyl)cyclopropyl)amino)propanoyl)-3,8-diazabicyclo[3.2.1]octan-8-yl)nicotinonitrile] was tested. Which pIC50 did it give?
Its pIC50 is 7.00 to 8.00.

With `C[C@H](OCC(=O)N1CC2CCC(C1)N2c1ccc(C#N)cn1)c1ccccc1` [Example 179, 6-(3-(2-((S)-1-phenylethoxy)acetyl)-3,8-diazabicyclo[3.2.1]octan-8-yl)nicotinonitrile] as the compound, how does the pIC50 read?
The pIC50 was 6.00 to 7.00.

How did the pIC50 turn out when `CC(OCC(=O)N1CC2CCC(C1)N2c1ccc(C#N)cn1)c1cccc2ncccc12` (racemic) [Example 192, 6-(3-(2-(1-(quinolin-5-yl)ethoxy)acetyl)-3,8-diazabicyclo[3.2.1]octan-8-yl)nicotinonitrile] was run?
The pIC50 was > 8.00.

`COc1cncc(C2(OCC(=O)N3CC4CCC(C3)N4c3ccnc(C#N)c3)CCC2)c1` [Example 281, 4-(3-(2-(1-(5-methoxypyridin-3-yl)cyclobutoxy)acetyl)-3,8-diazabicyclo[3.2.1]octan-8-yl)picolinonitrile] was tested. Which pIC50 did it give?
The pIC50 was > 8.00.

With `N#Cc1ccc(N2C3CCC2CN(C(=O)COC(c2ccc(F)c(F)c2)C2CC2)C3)nc1` (racemic) [Example 194, 6-(3-(2-(cyclopropyl(3,4-difluorophenyl)methoxy)acetyl)-3,8-diazabicyclo[3.2.1]octan-8-yl)nicotinonitrile] as the compound, how does the pIC50 read?
Its pIC50 is 6.00 to 7.00.

With `COc1cncc(C(NCC(=O)N2CC3CCC(C2)N3c2ccc(C#N)cn2)C(F)F)c1` (racemic) [Example 127, 6-(3-((2,2-difluoro-1-(5-methoxypyridin-3-yl)ethyl)glycyl)-3,8-diazabicyclo[3.2.1]octan-8-yl)nicotinonitrile] as the compound, how does the pIC50 read?
The pIC50 was > 8.00.

`N#Cc1ccc(N2C3CCC2CN(C(=O)CNC2(c4cccnn4)CC2)C3)nc1` [Example 64, 6-(3-((1-(pyridazin-3-yl)cyclopropyl)glycyl)-3,8-diazabicyclo[3.2.1]octan-8-yl)nicotinonitrile] was tested. Which pIC50 did it give?
The pIC50 was 6.00 to 7.00.

`COc1cncc(C(F)(F)/C=C/C(=O)N2CC3CCC(C2)N3c2ccc(C#N)cn2)c1` [Example 142, 6-(3-((E)-4,4-difluoro-4-(5-methoxypyridin-3-yl)but-2-enoyl)-3,8-diazabicyclo[3.2.1]octan-8-yl)nicotinonitrile] was tested. Which pIC50 did it give?
The pIC50 was > 8.00.

`COc1cc(F)ccc1C(C)NCC(=O)N1CC2CCC(C1)N2c1ccc(C#N)cn1` (racemic) [Example 56, 6-(3-((1-(4-fluoro-2-methoxyphenyl)ethyl)glycyl)-3,8-diazabicyclo[3.2.1]octan-8-yl)nicotinonitrile] was tested. Which pIC50 did it give?
Its pIC50 is > 8.00.

How did the pIC50 turn out when `N#Cc1ccc(N2C3CCC2CN(C(=O)/C=C/C(F)(F)c2cccc4ncnn24)C3)nc1` [Example 148, 6-(-3-((E)-4-([1,2,4]triazolo[1,5-a]pyridin-5-yl)-4,4-difluorobut-2-enoyl)-3,8-diazabicyclo[3.2.1]octan-8-yl)nicotinonitrile] was run?
The pIC50 was > 8.00.

`N#Cc1ccc(N2C3CCC2CN(C(=O)CNC2(c4ccccc4Br)CC2)C3)nc1` [Example 101, 6-(3-((1-(2-bromophenyl)cyclopropyl)glycyl)-3,8-diazabicyclo[3.2.1]octan-8-yl)nicotinonitrile] was tested. Which pIC50 did it give?
Its pIC50 is 7.00 to 8.00.
